Measured values taken from US9452985B2, “Tau imaging probe” (GE Healthcare Limited, priority 2010, dated 2016).

What was measured:
[1] = test system: neurofibrillary tangles (tau protein); experiment: Autoradiography experiments using [^18F] THK-5105, [^18F] THK-5117 and [^18F] THK-5125; assay type: binding, human; details: hippocampus section and adjacent sections, higher magnification images
Experimental: Paraffin-embedded sections of the brain from an Alzheimer's disease patient were deparaffinized, and then immersed in PBS for 10 minutes. Approximately 400 μCi/ml of each of [^18F] THK-5105, [^18F] THK-5117, and [^18F] THK-5125 was added dropwise to deparaffinized sections and allowed to react for 10 minutes at room temperature. After that, the sections were immersed in distilled water for 2 minutes, shaken lightly in 50% EtOH for 2 minutes, immersed again in distilled water for 2 minutes, and dried in a paraffin stretching device. The section was left overnight in contact with an imaging plate. Next day, the image was read with a BAS 5000 (Fujifilm Corporation). In addition, adjacent sections were immunostained with anti-phosphorylated tau antibody (AT8).

neurofibrillary tangles = experiment: Staining test on brain section of Alzheimer's disease patients; assay type: binding, human; details: 100 μM solution in 50% ethanol, 10 minutes, fluorescence microscope
Description: The procedure of staining test on the compounds of the present invention on the brain section of Alzheimer's disease patients is described below:
(1) We used the brain specimens of the temporal lobe or hippocampus from patients who were definitely diagnosed as having Alzheimer's disease pathology. The specimens were obtained from Choju Medical Institute, Fukushimura Hospital, our collaborating research institute, and the consent for use for research purposes was obtained from the patients' bereaved family (Fukushimura Hospital, Ethics Committee Approval No. 20).
(2) The paraffin-embedded brain tissue was sliced to 6 or 8 μm thickness, extended on a slide glass, and dried. The paraffinized brain section was deparaffinized by washing with xylene for 10 minutes×2, 100% ethanol for 5 minutes×2, 90% ethanol for 5 minutes, and running water for 10 minutes in this order.
(3) As a pretreatment for staining with the compounds of the present invention, the treatment to remove autofluorescence with lipofuscin was performed. First, the paraffinized brain section was immersed in 0.25% KMnO4 solution for 20 minutes. It was washed with PBS for 2 minutes twice, immersed in a 0.1% K2S2O5/oxalic acid solution for approximately 5 minutes, and further washed with PBS for 2 minutes 3 times.
(4) From 100 μM solution of the compounds of the present invention dissolved in 50% ethanol, approximately 150 μl was dropped on the section to react for 10 minutes. After being immersed in tap water 5 times, it was mounted with Flour Save Reagent (Calbiochem) and examined with a fluorescence microscope (Nikon, ECLIPSE 80i). The images were taken with a digital camera (Nikon, Dxin1200F or Photometrics, Cool SNAP ES).

K18-ΔK280 aggregates = K18-ΔK280 aggregates (Homo sapiens (Human), UniProt P10636, DEL597-597); experiment: Saturation binding test of THK-5105; details: [^18F] THK-5105 0.1 to 100 nM, K18-ΔK280 aggregates 200 nM, room temperature, one hour; read-out: dissociation constant Kd
Experimental: Regarding the binding of tau imaging probes to tau protein aggregates, a binding test was carried out and evaluated using a K18-ΔK280 construct which contained a 4-repeat structure involved in the formation of beta-sheet structures in the htau40 protein. For K18-ΔK280 (Martin von Bergen et al., THE JOURNAL OF BIOLOGICAL CHEMISTRY (2001), vol. 276, pp. 48165-48174; M. Goedert et al., NEURON (1989), vol. 3, pp. 519-526), an artificial gene fragment which was prepared based on its amino acid sequence was cloned into a pET-3a vector, the resulting plasmid was used to transform Escherichia coli BL21 (DE3) competent cells for protein expression, and the recombinant Escherichia coli cell was cultured to express K18-ΔK280. […]
K18-ΔK280 aggregates were made by preparing 20 μM PBS (pH 7.4) and incubating the K18-ΔK280 in the PBS at 37° C. for 4 days. The state where beta-sheet structures in K18-ΔK280 aggregates were formed was ascertained by thioflavin S fluorescence binding test. […]
In the binding test of [^18F] […] THK-5105 to K18-ΔK280 aggregates was calculated from the radioactivity of the filter which was measured on a gamma counter (AccuFLEX γ7000, Aloka). Non-specific binding was determined by adding unlabeled THK-5105 (at a final concentration of 2 μM) to the reaction system and performing experiments in a similar way.

[2] = test system: neurofibrillary tangles (tau protein); experiment: Autoradiography test with [^18F] BF-227 and [^18F] THK-5035 on brain section of Alzheimer's disease patients; assay type: binding, human; details: approximately 400 μCi/ml, 10 minutes
Experimental: After the paraffin-embedded brain section of Alzheimer's disease patients was deparaffinized, it was immersed in PBS for 10 minutes. Approximately 400 μCi/ml of [^18F] BF-227 and [^18F] THK-5035 were dropped on the section to react for 10 minutes at room temperature. It was immersed in distilled water for 2 minutes, shaken in 50% EtOH lightly for 2 minutes, immersed again in distilled water for 2 minutes, and dried in a paraffin extension device. The section was contacted on an imaging plate and settled overnight, and the next day, the images were read with a BAS5000 (Fujifilm Corporation). Furthermore, the serial section was immunostained with thioflavine-S staining and anti-tau antibody (AT8).

Sequence of K18-ΔK280 aggregates (P10636 other isoform, or with tags, fused parts or gaps del 597-597): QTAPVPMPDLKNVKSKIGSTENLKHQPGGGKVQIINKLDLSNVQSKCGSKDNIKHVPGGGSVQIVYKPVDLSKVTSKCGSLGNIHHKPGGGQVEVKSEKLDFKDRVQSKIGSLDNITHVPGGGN

Row | Compound | correspondence of autoradiography / unlabeled staining image with anti-phosphorylated tau antibody (AT8) immunostaining [1] | binding to neurofibrillary tangles in the brain section of Alzheimer's disease patients (staining test) (neurofibrillary tangles) | Kd (K18-ΔK280 aggregates) | accumulation in the region where [^18F] THK-5035 was accumulated (anti-tau antibody positive region), autoradiography [2]
1 | CN(C)c1ccc(-c2ccc3cc(OCC(O)CF)ccc3n2)cc1 (stereo not shown) [THK-5105, 6-[(3-fluoro-2-hydroxy)propoxy]-2-(4-dimethylaminophenyl)quinoline] | corresponded well with the image of immunostaining with the anti-phosphorylated tau antibody | bind to neurofibrillary tangles specifically and selectively | 3.9 nM | –
2 | CN(C)c1ncc(C=Cc2nc3ccc(OCCF)cc3o2)s1 [[^18F] BF-227] | – | – | – | no accumulation
